Measured values published in patent publication US20230099696A1, “NANO-COMPOSITE MICROPARTICLES OF POLYMYXIN” (Purdue Research Foundation, priority 2020, published 2023).

Columns and labels:
[1] = test system: Pseudomonas aeruginosa (PA); conditions: when combined with polymyxin B; cited from earlier work
[2] = test system: Staphylococcus aureus (SA); conditions: against SA; cited from earlier work
[3] = Crystallinity by powder X-ray diffraction (PXRD); format: physicochemical; conditions: state of Iva, FIG. 1B, 3A, 3B
Procedure: Crystalline state of the optimal Iva-BSA-NPs and the physical mixture (PM) of BSA and Iva were characterized by the powder X-ray diffraction (PXRD, SmartLabTM diffractometer, Rigaku Americas, Austin, USA) with Cu-Kα radiation source, operating at 40 kV and 44 mA . The scanning 2θ range was set as 5 to 60° with a scanning rate of 5°/min ([…] et al., 2018a). Crystalline state of co-delivery microparticles and the PM of BSA, Iva, Col and L-leucine were characterized by PXRD with the similar method as to detect the optimal nanoparticles.

crystalline state (PXRD) [3]: crystalline
SMILES: CC(C)(C)c1cc(C(C)(C)C)c(NC(=O)c2c[nH]c3ccccc3c2=O)cc1O [Iva, Ivacaftor]
antimicrobial activity against PA [1]: significant antimicrobial activity
MIC [2]: 8~32 mg/L
